The target in data set [1] is T1, human erythrocyte-derived acetylcholine esterase (Homo sapiens, UniProt P22303).
T1 construct: Acetylcholinesterase of human erythrocyte origin (Sigma Chemical Co.); purchased Sigma Chemical Co; host or cells: human erythrocytes (natural source)
The experiment in a line: Determination of the activity to inhibit the acetylcholine esterase of the crystals (Ellman method), Experimental Example 5. Type of data set: biochemical. Conditions: at least three experiments. As to the method:
The activity to inhibit the acetylcholine esterase of the crystals obtained in Example 1 was determined according to the acetylthiocholine method (the Ellman method) by the use of a human erythrocyte-derived acetylcholine esterase.
A human erythrocyte-derived acetylcholine esterase (Sigma Chemical Company) was dissolved into distilled water to obtain a standard enzyme preparation with an enzyme concentration of 0.2 IU/mL. […]
The activity to inhibit the acetylcholine esterase of the crystals obtained in Example 1 was determined according to the acetylthiocholine method (the ElIman method) by the use of a human erythrocyte-derived acetylcholine esterase.
A human erythrocyte-derived acetylcholine esterase (Sigma Chemical Company) was dissolved into distilled water to obtain a standard enzyme preparation with an enzyme concentration of 0.2 IU/mL. […] As soon as 50 μl of a 4-mM solution of acetylthiocholine iodide (Sigma Chemical Company) was added and shaking was started again, every increment in absorbance at the wavelength of 414 nm at an interval of 30 seconds was determined for 10 minutes. R=5.74×10^−7×ΔA (wherein R indicates an enzyme activity (mol) and ΔA indicates an increment in absorbance at the wavelength of 414 nm). […] Furthermore, the activity to inhibit the acetylcholine esterase of distigmine was determined in a manner similar to that described in the above method.
Background: In Ellman's method for cholinesterases, released thiocholine reacts with DTNB.

A short description of data set [2]: Stability test, Experimental Example 7. Type of data set: physicochemical. Here is the method:
A number of specimens of the crystals obtained in Example 1 were stored under the following conditions and then their changes in the property and the remaining percent were determined.
Storing conditions: 1. 60° C. for 3 months (in a brown glass bottle, closed); 2. 45° C., the relative humidity of 75% for 3 months (in a brown glass bottle, closed); 3. 40° C., the to relative humidity of 75% for 3 months (in a brown glass bottle, opened); 4. irradiated with a xenon lamp (60000 lux) for 20 hours (1.2 million lux/hour) (on a Petri dish covered with a polyvinylidene chloride film).

SMILES strings stand for the structures.

A word on the IC50: it is the concentration that gives 50% inhibition. A high value points to a need for much substance.

T1 sequence (P22303 32-617 isoform P22303-2 limits assumed): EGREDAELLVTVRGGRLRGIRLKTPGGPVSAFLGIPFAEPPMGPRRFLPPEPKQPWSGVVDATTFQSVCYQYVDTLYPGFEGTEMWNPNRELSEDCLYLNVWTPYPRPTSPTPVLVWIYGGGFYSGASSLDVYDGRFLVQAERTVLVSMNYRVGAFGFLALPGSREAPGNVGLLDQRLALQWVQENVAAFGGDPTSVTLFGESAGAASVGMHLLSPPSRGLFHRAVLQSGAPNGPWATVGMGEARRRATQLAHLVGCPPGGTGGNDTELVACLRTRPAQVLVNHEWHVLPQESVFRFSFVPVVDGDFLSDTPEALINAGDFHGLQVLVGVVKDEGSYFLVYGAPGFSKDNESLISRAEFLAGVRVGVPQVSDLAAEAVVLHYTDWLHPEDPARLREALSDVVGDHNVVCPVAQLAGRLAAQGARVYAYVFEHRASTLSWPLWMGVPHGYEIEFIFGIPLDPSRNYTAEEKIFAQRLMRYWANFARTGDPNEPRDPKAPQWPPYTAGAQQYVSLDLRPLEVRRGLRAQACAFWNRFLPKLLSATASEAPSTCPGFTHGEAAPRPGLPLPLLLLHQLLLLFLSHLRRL

In the case of `O=C(CCC1CCN(Cc2cccc(F)c2)CC1)c1cc2c3c(c1)CCN3C(=O)CC2` [Example 1, 8-[3-[1-[(3-fluorophenyl)-methyl]-4-piperidinyl]-1-oxopropyl]-1,2,5,6-tetrahydro-4H-pyrrolo-[3,2,1-ij]quinolin-4-one], the 50% inhibitory concentration (IC50) in data set [1] worked out at 6.6 nM. The “Remaining percent (%)” value amounted to 99.8% in data set [2] (storing condition 1 (60° C./3 months), brown glass bottle, closed); 101.6% in data set [2] (storing condition 2 (40° C./75% RH, closed), 3 months, brown glass bottle); 100.2% in data set [2] (storing condition 3 (40° C./75% RH, open), 3 months, brown glass bottle); 100.1% in data set [2] (storing condition 4 (Xenon lamp/20 hs.), 60000 lux). The “stability (in words)” value in data set [2] (storing conditions 1 to 4) was “any change in the property and any decrease in the remaining percent were not observed”.

For the origin of these results see patent publication US8252814B2, “Agents and crystals for improving excretory potency of urinary bladder” (priority 1998, dated 2012).
